From ChEMBL document CHEMBL1800005, “Synthesis and biological activity of a series of tetrasubstituted-imidazoles as P2X(7) antagonists” (Bioorg Med Chem Lett, 2010)
In brackets after ≈: the same amount, converted by molar mass.

Test system: not listed separately
Experiment: Solubility of compound in simulated gastric fluid at pH 1.2 after 1 hr
Format: physicochemical
Details: not given

| solubility at 1 h [µg/mL] | SMILES |
| --- | --- |
| 410 (≈ 1100 µM) | Cc1nn(-c2ccccc2)c(C)c1CC(=O)NCc1ccc(F)cc1Cl |
| > 1000 | Cc1nc(-c2ccc(F)cc2F)n(C)c1CC(=O)NCc1ccc(F)cc1Cl [listing 1 of 2 here] |

Target: T1, Cytochrome P450 1A2 (Homo sapiens, UniProt P05177)
T1 sequence (P05177 whole entry): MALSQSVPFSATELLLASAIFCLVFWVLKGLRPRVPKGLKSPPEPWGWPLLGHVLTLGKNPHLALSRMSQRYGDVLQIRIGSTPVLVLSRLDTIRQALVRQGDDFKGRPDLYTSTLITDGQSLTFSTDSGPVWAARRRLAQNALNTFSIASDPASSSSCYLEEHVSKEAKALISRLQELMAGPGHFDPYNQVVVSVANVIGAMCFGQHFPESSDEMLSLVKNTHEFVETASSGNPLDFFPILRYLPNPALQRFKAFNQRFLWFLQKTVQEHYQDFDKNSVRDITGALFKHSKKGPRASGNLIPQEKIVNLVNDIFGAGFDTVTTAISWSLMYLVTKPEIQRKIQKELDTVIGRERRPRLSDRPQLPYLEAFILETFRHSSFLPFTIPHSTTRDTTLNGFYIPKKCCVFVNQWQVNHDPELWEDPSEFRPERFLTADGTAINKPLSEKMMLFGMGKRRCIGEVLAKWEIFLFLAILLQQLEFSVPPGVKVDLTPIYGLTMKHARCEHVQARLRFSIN
Experiment: Inhibition of CYP1A2
Format: ADME
Details: not given

| IC50 [nM] | SMILES |
| --- | --- |
| > 10000 | Cc1nc(-c2ccc(F)cc2F)n(C)c1CC(=O)NCc1ccc(F)cc1Cl [listing 2 of 2 here] |

Test system: not listed separately
Experiment: Solubility of compound in fasted state simulated intestinal fluid at pH 6.5 after 1 hr
Format: physicochemical
Details: not given

| solubility at 1 h [µg/mL] | SMILES |
| --- | --- |
| 120 (≈ 323 µM) | Cc1nn(-c2ccccc2)c(C)c1CC(=O)NCc1ccc(F)cc1Cl |
| 370 (≈ 907 µM) | Cc1nc(-c2ccc(F)cc2F)n(C)c1CC(=O)NCc1ccc(F)cc1Cl [listing 1 of 2 here] |

Test system: not listed separately
Experiment: Dissociation constant, pKa of the compound
Format: physicochemical
Details: not given

| pKa | SMILES |
| --- | --- |
| 6.47 | Cc1nc(-c2ccc(F)cc2F)n(C)c1CC(=O)NCc1ccc(F)cc1Cl [listing 2 of 2 here] |

Test system: not listed separately
Experiment: Cmax in rat at 3 mg/kg, po
Format: ADME, organism-based
Design: dose 3 mg/kg, route oral
Details: in vivo

| Cmax [nM] | SMILES |
| --- | --- |
| 430 | Cc1nc(-c2ccc(F)cc2F)n(C)c1CC(=O)NCc1ccc(F)cc1Cl [listing 1 of 2 here] |

Test system: Rattus norvegicus
Experiment: Dose normalized AUC (0 to 6 hrs) in rat at 3 mg/kg, po
Format: ADME, organism-based
Design: dose 3 mg/kg, route oral
Details: in vivo

| AUC/dose [kg·min/L] | SMILES |
| --- | --- |
| 6.8 | Cc1nc(-c2ccc(F)cc2F)n(C)c1CC(=O)NCc1ccc(F)cc1Cl [listing 1 of 2 here] |

Target: Cytochrome P450 2C19 (Homo sapiens, UniProt P33261)
Sequence (P33261 whole entry): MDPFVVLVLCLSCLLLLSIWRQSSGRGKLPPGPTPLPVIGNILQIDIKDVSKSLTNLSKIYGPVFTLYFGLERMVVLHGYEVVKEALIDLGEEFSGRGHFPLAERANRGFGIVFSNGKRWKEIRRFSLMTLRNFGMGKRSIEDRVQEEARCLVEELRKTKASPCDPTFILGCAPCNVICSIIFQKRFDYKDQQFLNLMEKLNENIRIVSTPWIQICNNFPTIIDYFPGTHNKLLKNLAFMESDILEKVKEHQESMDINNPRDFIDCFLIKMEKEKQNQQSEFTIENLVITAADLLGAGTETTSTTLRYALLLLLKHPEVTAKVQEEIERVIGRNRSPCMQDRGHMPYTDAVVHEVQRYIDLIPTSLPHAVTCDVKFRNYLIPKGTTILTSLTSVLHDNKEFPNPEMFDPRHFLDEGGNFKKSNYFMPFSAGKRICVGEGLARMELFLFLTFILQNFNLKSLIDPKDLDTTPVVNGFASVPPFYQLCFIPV
Experiment: Inhibition of CYP2C19
Format: ADME
Details: not given

| IC50 [nM] | SMILES |
| --- | --- |
| > 10000 | Cc1nc(-c2ccc(F)cc2F)n(C)c1CC(=O)NCc1ccc(F)cc1Cl [listing 2 of 2 here] |

Test system: not listed separately
Experiment: Solubility of the compound in water after 1 hr
Format: physicochemical
Details: not given

| solubility at 1 h [µg/mL] | SMILES |
| --- | --- |
| 920 (≈ 2260 µM) | Cc1nc(-c2ccc(F)cc2F)n(C)c1CC(=O)NCc1ccc(F)cc1Cl [listing 1 of 2 here] |

Target: Albumin (Homo sapiens, UniProt P02768)
Sequence (P02768 whole entry): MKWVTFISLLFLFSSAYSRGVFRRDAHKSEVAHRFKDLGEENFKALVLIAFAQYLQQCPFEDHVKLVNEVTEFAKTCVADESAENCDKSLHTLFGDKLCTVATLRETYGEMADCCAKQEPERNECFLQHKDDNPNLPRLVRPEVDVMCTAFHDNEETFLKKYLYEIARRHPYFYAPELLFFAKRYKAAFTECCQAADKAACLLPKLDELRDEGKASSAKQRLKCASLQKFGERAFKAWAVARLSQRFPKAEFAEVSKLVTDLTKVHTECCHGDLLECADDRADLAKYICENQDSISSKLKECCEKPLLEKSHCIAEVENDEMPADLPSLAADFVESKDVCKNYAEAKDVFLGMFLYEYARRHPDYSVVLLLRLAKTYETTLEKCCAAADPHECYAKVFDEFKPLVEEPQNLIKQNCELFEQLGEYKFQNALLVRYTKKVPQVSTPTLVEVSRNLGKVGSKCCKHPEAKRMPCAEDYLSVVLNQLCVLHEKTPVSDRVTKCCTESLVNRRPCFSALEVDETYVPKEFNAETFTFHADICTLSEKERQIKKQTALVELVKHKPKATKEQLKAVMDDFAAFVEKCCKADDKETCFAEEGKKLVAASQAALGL
Experiment: Protein binding in human serum albumin
Format: ADME
Details: read-out: PB

| fraction unbound | SMILES |
| --- | --- |
| 0.09 | Cc1nc(-c2ccc(F)cc2F)n(C)c1CC(=O)NCc1ccc(F)cc1Cl [listing 2 of 2 here] |

Target: Cytochrome P450 3A4 (Homo sapiens, UniProt P08684)
Sequence (P08684 whole entry): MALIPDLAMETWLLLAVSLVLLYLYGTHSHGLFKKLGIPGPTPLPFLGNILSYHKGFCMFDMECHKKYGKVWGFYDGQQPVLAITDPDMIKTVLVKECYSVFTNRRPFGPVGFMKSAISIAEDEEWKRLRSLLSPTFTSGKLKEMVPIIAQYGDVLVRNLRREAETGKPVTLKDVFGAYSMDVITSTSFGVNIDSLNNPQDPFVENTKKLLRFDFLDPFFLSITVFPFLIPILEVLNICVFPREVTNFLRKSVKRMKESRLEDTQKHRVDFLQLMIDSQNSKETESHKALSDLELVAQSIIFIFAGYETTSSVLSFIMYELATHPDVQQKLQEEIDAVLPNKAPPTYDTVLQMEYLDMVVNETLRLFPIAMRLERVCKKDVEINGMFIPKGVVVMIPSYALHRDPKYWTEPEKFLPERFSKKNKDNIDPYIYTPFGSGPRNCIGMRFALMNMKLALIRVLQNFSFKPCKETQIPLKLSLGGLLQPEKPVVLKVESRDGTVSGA
Experiment: Inhibition of CYP3A4 using diethoxyflourescein as a substrate
Format: ADME
Details: not given

| IC50 [nM] | SMILES |
| --- | --- |
| 5500 | Cc1nc(-c2ccc(F)cc2F)n(C)c1CC(=O)NCc1ccc(F)cc1Cl [listing 2 of 2 here] |

Target: Cytochrome P450 2C9 (Homo sapiens, UniProt P11712)
Sequence (P11712 whole entry): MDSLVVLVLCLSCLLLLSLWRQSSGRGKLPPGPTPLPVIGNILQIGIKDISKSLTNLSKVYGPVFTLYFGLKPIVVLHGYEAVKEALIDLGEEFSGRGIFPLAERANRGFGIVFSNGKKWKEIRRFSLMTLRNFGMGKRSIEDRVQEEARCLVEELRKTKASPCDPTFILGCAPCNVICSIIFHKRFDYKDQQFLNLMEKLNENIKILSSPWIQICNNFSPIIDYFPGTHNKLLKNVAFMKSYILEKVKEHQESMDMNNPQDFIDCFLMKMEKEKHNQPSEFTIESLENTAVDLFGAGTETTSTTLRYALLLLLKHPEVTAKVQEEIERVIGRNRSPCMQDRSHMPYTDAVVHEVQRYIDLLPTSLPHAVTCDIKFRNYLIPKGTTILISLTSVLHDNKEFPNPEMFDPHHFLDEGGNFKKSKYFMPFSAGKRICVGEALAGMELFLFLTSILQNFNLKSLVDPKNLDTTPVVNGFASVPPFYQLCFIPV
Experiment: Inhibition of CYP2C9
Format: ADME
Details: not given

| IC50 [nM] | SMILES |
| --- | --- |
| > 10000 | Cc1nc(-c2ccc(F)cc2F)n(C)c1CC(=O)NCc1ccc(F)cc1Cl [listing 2 of 2 here] |

Target: Cytochrome P450 2D6 (Homo sapiens, UniProt P10635)
Sequence (P10635 whole entry): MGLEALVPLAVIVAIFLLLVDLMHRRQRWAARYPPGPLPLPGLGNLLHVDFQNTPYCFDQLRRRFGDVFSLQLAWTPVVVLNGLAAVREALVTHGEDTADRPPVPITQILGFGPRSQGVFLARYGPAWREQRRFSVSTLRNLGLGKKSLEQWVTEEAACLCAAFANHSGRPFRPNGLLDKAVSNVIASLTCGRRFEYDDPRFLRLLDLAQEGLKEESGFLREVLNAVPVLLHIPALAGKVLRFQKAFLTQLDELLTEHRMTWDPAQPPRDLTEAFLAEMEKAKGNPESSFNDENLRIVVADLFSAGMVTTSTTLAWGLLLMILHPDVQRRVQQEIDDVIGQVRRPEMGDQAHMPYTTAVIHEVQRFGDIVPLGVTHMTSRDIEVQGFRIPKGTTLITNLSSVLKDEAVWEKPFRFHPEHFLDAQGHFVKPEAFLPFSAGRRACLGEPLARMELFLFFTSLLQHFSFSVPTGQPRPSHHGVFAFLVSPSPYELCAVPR
Experiment: Inhibition of CYP2D6
Format: ADME
Details: not given

| IC50 [nM] | SMILES |
| --- | --- |
| > 10000 | Cc1nc(-c2ccc(F)cc2F)n(C)c1CC(=O)NCc1ccc(F)cc1Cl [listing 2 of 2 here] |

Test system: not listed separately
Experiment: Tmax in rat at 3 mg/kg, po
Format: ADME, organism-based
Design: dose 3 mg/kg, route oral
Details: in vivo

| Tmax [min] | SMILES |
| --- | --- |
| 30 | Cc1nc(-c2ccc(F)cc2F)n(C)c1CC(=O)NCc1ccc(F)cc1Cl [listing 1 of 2 here] |

Target: T2, P2X purinoceptor 7 (Homo sapiens, UniProt Q99572)
T2 sequence (Q99572 whole entry): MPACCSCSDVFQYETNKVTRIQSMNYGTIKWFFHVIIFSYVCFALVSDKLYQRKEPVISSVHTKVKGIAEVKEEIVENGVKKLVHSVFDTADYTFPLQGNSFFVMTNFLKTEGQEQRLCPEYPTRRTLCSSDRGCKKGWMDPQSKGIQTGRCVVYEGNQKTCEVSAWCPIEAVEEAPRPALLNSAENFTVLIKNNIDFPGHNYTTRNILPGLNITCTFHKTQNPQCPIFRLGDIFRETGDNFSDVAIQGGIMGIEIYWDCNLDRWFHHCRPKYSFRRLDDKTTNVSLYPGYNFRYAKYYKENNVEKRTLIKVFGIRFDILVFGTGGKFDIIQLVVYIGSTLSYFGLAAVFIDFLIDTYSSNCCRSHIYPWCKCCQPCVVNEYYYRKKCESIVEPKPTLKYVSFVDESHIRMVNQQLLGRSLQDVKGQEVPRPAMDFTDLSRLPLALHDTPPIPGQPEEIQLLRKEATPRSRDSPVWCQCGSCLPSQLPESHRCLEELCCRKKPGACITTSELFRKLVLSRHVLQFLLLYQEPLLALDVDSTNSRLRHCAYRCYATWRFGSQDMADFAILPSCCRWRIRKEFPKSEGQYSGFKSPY
Experiment: Antagonist activity at human recombinant P2X7 receptor expressed in HEK293 cells by ethidium bromide […] assay
Format: functional, cell-based
Details: not given

| SMILES | IC50 [nM] |
| --- | --- |
| CCn1c(-c2ccccc2)nc(C)c1CC(=O)NCc1ccc(F)cc1Cl | 100 |
| Cc1nc(-c2ccccc2)n(C)c1CC(=O)NCc1ccc(F)c(F)c1F | 100 |
| CCn1c(-c2ccccc2)nc(C)c1CC(=O)NCc1ccc(F)c(F)c1F | 158 |
| CCn1c(-c2ccc(F)cc2F)nc(C)c1CC(=O)NCc1ccc(F)cc1Cl | 100 |
| CCn1c(-c2ccc(F)cc2F)nc(C)c1CC(=O)NCc1c(C)cccc1Cl | 50.1 |
| Cc1nc(-c2ccc(F)cc2F)n(C)c1CC(=O)NCc1ccc(F)c(F)c1F | 63.1 |
| CCn1c(-c2ccc(F)cc2F)nc(C)c1CC(=O)NCc1ccc(F)c(F)c1F | 126 |
| Cn1c(CC(=O)NCc2ccc(F)cc2Cl)cnc1-c1ccc(F)cc1F | 200 |
| CCn1c(CC(=O)NCc2ccc(F)cc2Cl)cnc1-c1ccc(F)cc1F | 501 |
| Cc1c(Cl)cccc1CNC(=O)Cc1cnc(-c2ccc(F)cc2F)n1C | 63.1 |

Further lines, results first:

| IC50 [nM] | SMILES |
| --- | --- |
| 39.8 | Cc1nc(-c2ccccc2)n(C)c1CC(=O)NCc1ccc(F)cc1Cl |
| 50.1 | Cc1nc(-c2ccccc2)n(C)c1CC(=O)NCc1cccc(Cl)c1C |
| 50.1 | CCn1c(-c2ccccc2)nc(C)c1CC(=O)NCc1cccc(Cl)c1C |
| 50.1 | Cc1cccc(Cl)c1CNC(=O)Cc1c(C)nc(-c2ccccc2)n1C |
| 50.1 | CCn1c(-c2ccccc2)nc(C)c1CC(=O)NCc1c(C)cccc1Cl |
| 39.8 | Cc1nc(-c2ccc(F)cc2F)n(C)c1CC(=O)NCc1ccc(F)cc1Cl [listing 1 of 2 here] |
| 31.6 | Cc1nc(-c2ccc(F)cc2F)n(C)c1CC(=O)NCc1cccc(Cl)c1C |
| 39.8 | CCn1c(-c2ccc(F)cc2F)nc(C)c1CC(=O)NCc1cccc(Cl)c1C |

Test system: not listed separately
Experiment: Solubility of compound in fed state simulated intestinal fluid at pH 5 after 1 hr
Format: physicochemical
Details: not given

| solubility at 1 h [µg/mL] | SMILES |
| --- | --- |
| 100 (≈ 269 µM) | Cc1nn(-c2ccccc2)c(C)c1CC(=O)NCc1ccc(F)cc1Cl |
| 900 (≈ 2210 µM) | Cc1nc(-c2ccc(F)cc2F)n(C)c1CC(=O)NCc1ccc(F)cc1Cl [listing 1 of 2 here] |

Target: T3, P2X purinoceptor 7 (Rattus norvegicus, UniProt Q64663)
T3 sequence (Q64663 whole entry): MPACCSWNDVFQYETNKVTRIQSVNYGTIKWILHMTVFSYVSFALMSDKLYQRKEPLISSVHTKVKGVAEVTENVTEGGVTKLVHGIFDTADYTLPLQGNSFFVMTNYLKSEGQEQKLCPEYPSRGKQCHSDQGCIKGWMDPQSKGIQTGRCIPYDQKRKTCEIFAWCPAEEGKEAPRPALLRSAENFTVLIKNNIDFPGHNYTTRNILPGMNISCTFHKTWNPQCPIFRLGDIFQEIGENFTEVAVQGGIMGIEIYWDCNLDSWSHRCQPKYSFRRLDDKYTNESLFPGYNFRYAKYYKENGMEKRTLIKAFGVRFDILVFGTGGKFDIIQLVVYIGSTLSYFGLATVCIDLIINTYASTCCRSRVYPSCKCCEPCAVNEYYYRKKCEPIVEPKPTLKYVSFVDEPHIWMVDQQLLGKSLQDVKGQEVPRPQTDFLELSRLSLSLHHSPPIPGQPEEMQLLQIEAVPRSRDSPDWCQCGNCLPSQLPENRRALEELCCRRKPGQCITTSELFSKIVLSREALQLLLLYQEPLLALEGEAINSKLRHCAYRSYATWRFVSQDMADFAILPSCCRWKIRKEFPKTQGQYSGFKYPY
Experiment: Antagonist activity at rat recombinant P2X7 receptor expressed in HEK293 cells by ethidium bromide […] assay
Format: functional, cell-based
Details: not given

| SMILES | IC50 [nM] |
| --- | --- |
| CCn1c(-c2ccccc2)nc(C)c1CC(=O)NCc1ccc(F)cc1Cl | 158 |
| Cc1nc(-c2ccccc2)n(C)c1CC(=O)NCc1ccc(F)c(F)c1F | 5010 |
| CCn1c(-c2ccccc2)nc(C)c1CC(=O)NCc1ccc(F)c(F)c1F | 3980 |
| CCn1c(-c2ccc(F)cc2F)nc(C)c1CC(=O)NCc1ccc(F)cc1Cl | 158 |
| CCn1c(-c2ccc(F)cc2F)nc(C)c1CC(=O)NCc1c(C)cccc1Cl | 631 |
| Cc1nc(-c2ccc(F)cc2F)n(C)c1CC(=O)NCc1ccc(F)c(F)c1F | > 10000 |
| CCn1c(-c2ccc(F)cc2F)nc(C)c1CC(=O)NCc1ccc(F)c(F)c1F | 1000 |
| Cn1c(CC(=O)NCc2ccc(F)cc2Cl)cnc1-c1ccc(F)cc1F | 251 |
| CCn1c(CC(=O)NCc2ccc(F)cc2Cl)cnc1-c1ccc(F)cc1F | 398 |
| Cc1c(Cl)cccc1CNC(=O)Cc1cnc(-c2ccc(F)cc2F)n1C | 631 |

Further lines, results first:

| IC50 [nM] | SMILES |
| --- | --- |
| 251 | Cc1nc(-c2ccccc2)n(C)c1CC(=O)NCc1ccc(F)cc1Cl |
| 1580 | Cc1nc(-c2ccccc2)n(C)c1CC(=O)NCc1cccc(Cl)c1C |
| 631 | CCn1c(-c2ccccc2)nc(C)c1CC(=O)NCc1cccc(Cl)c1C |
| 3160 | Cc1cccc(Cl)c1CNC(=O)Cc1c(C)nc(-c2ccccc2)n1C |
| 501 | CCn1c(-c2ccccc2)nc(C)c1CC(=O)NCc1c(C)cccc1Cl |
| 316 | Cc1nc(-c2ccc(F)cc2F)n(C)c1CC(=O)NCc1ccc(F)cc1Cl [listing 1 of 2 here] |
| 631 | Cc1nc(-c2ccc(F)cc2F)n(C)c1CC(=O)NCc1cccc(Cl)c1C |
| 398 | CCn1c(-c2ccc(F)cc2F)nc(C)c1CC(=O)NCc1cccc(Cl)c1C |
